In brackets after ≈: the same amount, converted by molar mass. Where two headings read alike, the source gives them in different places.
How the values were obtained:
[1] = tested on: S. epidermidis ATCC 12228; assay: MIC determination, S. epidermidis ATCC 12228; type: cell-based, Staphylococcus epidermidis; details: for MIC: Staphylococcus epidermidis, read-out: MIC S. epidermidis ATCC 12228
[2] = tested on: M. catarrhalis ATCC 25238; assay: MIC determination, M. catarrhalis ATCC 25238; type: cell-based; details: for MIC: Moraxella catarrhalis, ATCC25238, Table 1, read-out: MIC M. catarrhalis ATCC 25238
S. pneumoniae ATCC 6301 = assay: MIC determination, S. pneumoniae ATCC 6301; type: cell-based, Streptococcus pneumoniae; details: for MIC: Streptococcus pneumoniae; for MIC S. pneumonia ATCC 6301: Table 2
S. aureus ATCC 29213 = assay: MIC determination, S. aureus ATCC 29213; type: cell-based, Staphylococcus aureus; details: for MIC: Staphylococcus aureus, read-out: MIC S. aureus ATCC 29213
H. influenzae ATCC 49766 = assay: MIC determination, H. influenzae ATCC 49766; type: cell-based, Haemophilus influenzae; details: Table 2; for MIC: Haemophilus influenzae, ATCC49766
E. faecium CT-26 = assay: MIC determination, E. faecium CT-26; type: cell-based, Enterococcus faecium; details: for MIC: Enterococcus faecium, read-out: MIC E. faecium CT-26
E. faecalis ATCC 29212 = assay: MIC determination, E. faecalis ATCC 29212; type: cell-based, Enterococcus faecalis; details: for MIC: Enterococcus faecalis, read-out: MIC E. faecalis ATCC 29212
M. tuberculosis H37Rv = assay: Anti-mycobacterium in vitro activity, H37Rv; type: cell-based, Mycobacterium tuberculosis; details: Sensitive strain; for MIC: Mycobacterium tuberculosis, H37RV
[3] = ATCC6301, Table 1, read-out: MIC S. pneumoniae ATCC 6301
[4] = ATCC6301, Table 2, read-out: MIC S. pneumonia ATCC 6301

CO/N=C(\C(=O)N[C@@H]1C(=O)N2C(C(=O)O)=C(CSc3nc(=O)c(=O)[nH]n3C)CS[C@H]12)c1csc(N)n1 [Ceftriaxone, reference compound]
MIC ([1]; ATCC12228, Table 1): 1 µg/mL (≈ 1.8 µM) | MIC ([1]; ATCC12228, Table 2): 1 µg/mL (≈ 1.8 µM) | MIC [2]: 0.125 µg/mL (≈ 0.225 µM) | MIC (S. pneumoniae ATCC 6301; [3]): 0.125 µg/mL (≈ 0.225 µM) | MIC (S. pneumoniae ATCC 6301; [4]): < 0.125 µg/mL | MIC (S. aureus ATCC 29213; ATCC29213, Table 1): 2 µg/mL (≈ 3.61 µM) | MIC (S. aureus ATCC 29213; ATCC29213, Table 2): 2 µg/mL (≈ 3.61 µM) | MIC (H. influenzae ATCC 49766): 0.12 µg/mL (≈ 0.216 µM) | MIC (E. faecium CT-26; CT26, Table 1): 64 µg/mL (≈ 115 µM) | MIC (E. faecium CT-26; CT26, Table 2): 64 µg/mL (≈ 115 µM) | MIC (E. faecalis ATCC 29212; ATCC29212, Table 1): 64 µg/mL (≈ 115 µM) | MIC (E. faecalis ATCC 29212; ATCC29212, Table 2): 64 µg/mL (≈ 115 µM)

CC1(C)O[B-](c2ccc(Cl)cc2)(c2ccc(Cl)cc2)[n+]2cccc(O)c21 [Compound 103]
MIC S. epidermidis ATCC 12228 ([1]; Table 2): 0.5 micrograms per ml | MIC S. pneumonia ATCC 6301 (S. pneumoniae ATCC 6301): 0.5 micrograms per ml | MIC S. aureus ATCC 29213 (S. aureus ATCC 29213; Table 2): 0.25 micrograms per ml | MIC H. influenzae ATCC 49766 (H. influenzae ATCC 49766): 64 micrograms per ml | MIC E. faecium CT-26 (E. faecium CT-26; Table 2): 1 micrograms per ml | MIC E. faecalis ATCC 29212 (E. faecalis ATCC 29212; Table 2): 4 micrograms per ml

CC1COc2c(N3CCN(C)CC3)c(F)cc3c(=O)c(C(=O)O)cn1c23 (stereo not drawn) [Ofloxacin]
MIC (M. tuberculosis H37Rv): 4 µg/mL (≈ 11.1 µM)

Cc1ccc(B(OC(=O)c2ncccc2O)c2ccc(C)c(Cl)c2)cc1Cl [Compound 111, Bis(3-Chloro-4-methylphenyl)borinic acid 3-hydroxypicolinate ester]
MIC S. epidermidis ATCC 12228 ([1]; Table 2): 1 micrograms per ml | MIC S. aureus ATCC 29213 (S. aureus ATCC 29213; Table 2): 2 micrograms per ml | MIC H. influenzae ATCC 49766 (H. influenzae ATCC 49766): 64 micrograms per ml | MIC E. faecium CT-26 (E. faecium CT-26; Table 2): 2 micrograms per ml | MIC E. faecalis ATCC 29212 (E. faecalis ATCC 29212; Table 2): 2 micrograms per ml

Oc1cccc2cccnc12 [Compound 51, 8-hydroxyquinoline]
MIC S. epidermidis ATCC 12228 ([1]; Table 1): 1 micrograms per ml | M. tuberculosis MIC H37Rv (M. tuberculosis H37Rv): 0.387 µg/mL | MIC S. aureus ATCC 29213 (S. aureus ATCC 29213; Table 1): 2 micrograms per ml | MIC E. faecium CT-26 (E. faecium CT-26; Table 1): 2 micrograms per ml | MIC E. faecalis ATCC 29212 (E. faecalis ATCC 29212; Table 1): 8 micrograms per ml

O=C(O)c1ncccc1O [Compound 117, 3-hydroxypicolinic acid]
MIC S. epidermidis ATCC 12228 ([1]; Table 2): 1 micrograms per ml | MIC S. pneumonia ATCC 6301 (S. pneumoniae ATCC 6301): 0.5 micrograms per ml | MIC S. aureus ATCC 29213 (S. aureus ATCC 29213; Table 2): 2 micrograms per ml | MIC H. influenzae ATCC 49766 (H. influenzae ATCC 49766): 16 micrograms per ml | MIC E. faecium CT-26 (E. faecium CT-26; Table 2): 4 micrograms per ml | MIC E. faecalis ATCC 29212 (E. faecalis ATCC 29212; Table 2): 4 micrograms per ml

CC1(C)O[B-](c2cccc(Cl)c2)(c2cccc(Cl)c2)[n+]2cccc(O)c21 [Compound 102]
MIC S. epidermidis ATCC 12228 ([1]; Table 2): 1 micrograms per ml | MIC S. pneumonia ATCC 6301 (S. pneumoniae ATCC 6301): 0.25 micrograms per ml | MIC S. aureus ATCC 29213 (S. aureus ATCC 29213; Table 2): 0.5 micrograms per ml | MIC H. influenzae ATCC 49766 (H. influenzae ATCC 49766): 64 micrograms per ml | MIC E. faecium CT-26 (E. faecium CT-26; Table 2): 2 micrograms per ml | MIC E. faecalis ATCC 29212 (E. faecalis ATCC 29212; Table 2): 64 micrograms per ml

O=C(O)c1ncccc1O [Compound 116, 3-hydroxypicolinic acid]
MIC S. epidermidis ATCC 12228 ([1]; Table 2): 1 micrograms per ml | MIC S. pneumonia ATCC 6301 (S. pneumoniae ATCC 6301): 0.25 micrograms per ml | MIC S. aureus ATCC 29213 (S. aureus ATCC 29213; Table 2): 2 micrograms per ml | MIC H. influenzae ATCC 49766 (H. influenzae ATCC 49766): 64 micrograms per ml | MIC E. faecium CT-26 (E. faecium CT-26; Table 2): 4 micrograms per ml | MIC E. faecalis ATCC 29212 (E. faecalis ATCC 29212; Table 2): 4 micrograms per ml

CC1(C)S[C@@H]2[C@H](NC(=O)Cc3ccccc3)C(=O)N2[C@H]1C(=O)O [Pen G, reference compound]
MIC S. epidermidis ATCC 12228 ([1]; Table 1): 16 micrograms per ml | MIC S. epidermidis ATCC 12228 ([1]; Table 2): 16 micrograms per ml | MIC M. catarrhalis ATCC 25238 ([2]; Table 1): 0.125 micrograms per ml | MIC S. pneumoniae ATCC 6301 (S. pneumoniae ATCC 6301; Table 1): 0.125 micrograms per ml | MIC S. pneumonia ATCC 6301 (S. pneumoniae ATCC 6301): <0.125 micrograms per ml | MIC S. aureus ATCC 29213 (S. aureus ATCC 29213; Table 1): 0.5 micrograms per ml | MIC S. aureus ATCC 29213 (S. aureus ATCC 29213; Table 2): 0.5 micrograms per ml | MIC H. influenzae ATCC 49766 (H. influenzae ATCC 49766): 0.12 micrograms per ml | MIC E. faecium CT-26 (E. faecium CT-26; Table 1): 32 micrograms per ml | MIC E. faecium CT-26 (E. faecium CT-26; Table 2): 32 micrograms per ml | MIC E. faecalis ATCC 29212 (E. faecalis ATCC 29212; Table 1): 1 micrograms per ml | MIC E. faecalis ATCC 29212 (E. faecalis ATCC 29212; Table 2): 1 micrograms per ml

N[C@@H]1CON=C1O [cycloserine]
MIC (M. tuberculosis H37Rv): 8 µg/mL (≈ 78.4 µM)

O=C(O)Cc1ccccn1 [Compound 106, 2-pyridylacetic acid]
MIC ([1]; ATCC12228, Table 2): 4 µg/mL (≈ 29.2 µM) | MIC (S. aureus ATCC 29213; ATCC29213, Table 2): 0.5 µg/mL (≈ 3.65 µM) | MIC (H. influenzae ATCC 49766): 64 µg/mL (≈ 467 µM) | MIC (E. faecium CT-26; CT26, Table 2): 64 µg/mL (≈ 467 µM) | MIC (E. faecalis ATCC 29212; ATCC29212, Table 2): 64 µg/mL (≈ 467 µM)

Clc1cccc(B(OCCc2c[nH]cn2)c2cccc(Cl)c2)c1 [Compound 121, Bis(3-Chlorophenyl)borinic acid 4-(hydroxyethyl)imidazole ester]
MIC S. epidermidis ATCC 12228 ([1]; Table 2): 4 micrograms per ml | MIC S. pneumonia ATCC 6301 (S. pneumoniae ATCC 6301): 8 micrograms per ml | MIC S. aureus ATCC 29213 (S. aureus ATCC 29213; Table 2): 0.125 micrograms per ml | MIC H. influenzae ATCC 49766 (H. influenzae ATCC 49766): 4 micrograms per ml | MIC E. faecium CT-26 (E. faecium CT-26; Table 2): 32 micrograms per ml | MIC E. faecalis ATCC 29212 (E. faecalis ATCC 29212; Table 2): 32 micrograms per ml

CO[C@H]1/C=C/O[C@@]2(C)Oc3c(C)c(O)c4c(O)c(c(/C=N/N5CCN(C)CC5)c(O)c4c3C2=O)NC(=O)/C(C)=C\C=C\[C@H](C)[C@H](O)[C@@H](C)[C@@H](O)[C@@H](C)[C@H](OC(C)=O)[C@@H]1C [Rifampicin]
MIC (M. tuberculosis H37Rv): < 0.125 µg/mL

Cc1onc(-c2ccccc2Cl)c1C(=O)N[C@@H]1C(=O)N2[C@@H]1SC(C)(C)[C@@H]2C(=O)O [Cloxacillin, reference compound]
MIC ([1]; ATCC12228, Table 1): 0.25 µg/mL (≈ 0.574 µM) | MIC ([1]; ATCC12228, Table 2): 0.25 µg/mL (≈ 0.574 µM) | MIC [2]: 1 µg/mL (≈ 2.29 µM) | MIC (S. pneumoniae ATCC 6301; [3]): 0.125 µg/mL (≈ 0.287 µM) | MIC (S. pneumoniae ATCC 6301; [4]): 0.12 µg/mL (≈ 0.275 µM) | MIC (S. aureus ATCC 29213; ATCC29213, Table 1): 0.125 µg/mL (≈ 0.287 µM) | MIC (S. aureus ATCC 29213; ATCC29213, Table 2): 0.12 µg/mL (≈ 0.275 µM) | MIC (H. influenzae ATCC 49766): 8 µg/mL (≈ 18.4 µM) | MIC (E. faecium CT-26; CT26, Table 1): 64 µg/mL (≈ 147 µM) | MIC (E. faecium CT-26; CT26, Table 2): 64 µg/mL (≈ 147 µM) | MIC (E. faecalis ATCC 29212; ATCC29212, Table 1): 16 µg/mL (≈ 36.7 µM) | MIC (E. faecalis ATCC 29212; ATCC29212, Table 2): 16 µg/mL (≈ 36.7 µM)
